Results as given in US12496267B2, “Extract of organic humified materials” (priority 2019, dated 2025).

How the values were obtained:
IL-13 = test: Inflammation: reconstructed human epidermis/PBMC, MSD U-PLEX, IL-13; format: cell-based; conditions: PBMCs (supernatant)
Experimental: (§1) Potential immune modulatory effects were determined on reconstructed human epidermis (RHE) using a 3D Skin Modell (Cell systems). In the first step the skin patches are stimulated with specific controls and stimuli for a defined time period. In this context it had to be considered that different stimuli require different incubation times. The incubation with heat inactivated C.acnes (10^7 cells/approach) as well as the direct incubation with the test substances (AHE/FA/BIS) was performed for 16h at 37° C. The AHE test substances comprised AHE solutions, comprising either 1%, 2% or 5% AHE in PBS, generated as described in Example 8. The incubation with the positive control (5% SDS) was performed for 20 min (37° C.). After the primary stimulation step skin patches were washed (PBS 3×300 μl) and subjected to a regeneration phase (24h/37° C.) in presence of the indicated substances (CM/AHE/FA/CH/BIS). After this incubation phase the culture medium of each approach was isolated and used to stimulate human PBMCs. Hereby 100 μl of the RHE culture was added cultures of human PBMCs (1×10^6 cells in 300 μl culture medium) and incubated for additional 16 h (37° C.). After this incubation step, PBMCs were separated by centrifugation and the supernatant was saved for the MSD multiplexing platform. In parallel the cells of the RHE culture were subjected to cell lysis (1% SDS, 30 min/4° C. agitation). Cell extracts were saved for the MSD multiplexing platform.
(§2) Using the MSD U-PLEX it is possible to create an individualized multiplex assays for any combination of analytes. Hereby biotinylated capture reagents are coupled to U-PLEX Linkers. The U-PLEX Linkers then self-assemble onto unique spots on the U-PLEX plate. After analytes in the sample bind to the capture reagents, detection antibodies conjugated with electro-chemiluminescent labels (MSD GOLD SULFO-TAG) bind to the analytes to complete the sandwich immunoassay. Using this technology, the following markers were immobilized: […]

IL-1β = test: Inflammation: reconstructed human epidermis/PBMC, MSD U-PLEX, IL-1β; format: cell-based
Experimental: as §1
(§3) Using the MSD U-PLEX it is possible to create an individualized multiplex assays for any combination of analytes. Hereby biotinylated capture reagents are coupled to U-PLEX Linkers. The U-PLEX Linkers then self-assemble onto unique spots on the U-PLEX plate. After analytes in the sample bind to the capture reagents, detection antibodies conjugated with electro-chemiluminescent labels (MSD GOLD SULFO-TAG) bind to the analytes to complete the sandwich immunoassay. Using this technology, the following markers were immobilized:
(§4) U-PLEX Human IFN-γ, U-PLEX Human IL-16, U-PLEX Human IL-2, U-PLEX Human IL-4, U-PLEX Human IL-5, U-PLEX Human IL-6, U-PLEX Human IL-8, U-PLEX Human IL-12p70, U-PLEX Human IL-13, U-PLEX Human IL-17A, U-PLEX Human IL-17F, U-PLEX Human IL-22, U-PLEX Human IL-23, U-PLEX Human TNF-α. U-PLEX Human TGF-β1. All steps were performed according to the supplier's protocol.
(§5) As described above, the Reconstructed human epidermis (RhE) was stimulated with the indicated substances and stimuli (Sample # Description, Tables 11-21) for 16 h. Upon this step the RhE was washed and in incubated in a second line with the indicated substances or culture medium. As controls, the RhE was treated in the first line with PBS and subsequently with culture medium. As further controls the PBMCs were treated with culture medium alone, with heat inactivated C. acnes and with pooled supernantant (SN) of the RhEs before stimulation. For Mesoscale analysis, the supernatant of the PBMC culture (PBMCs) was compared with a cell extract of the RhE prepared after the individual incubation steps (RhEs) and the supernatant of the RhEs after the stimulation steps (SN RhEs). RhE treated in the first and second line with culture medium (Rhe NC) can be used as negative control in all settings.

TNFα = test: Inflammation: reconstructed human epidermis/PBMC, MSD U-PLEX, TNFα; format: cell-based
Experimental: as §1, §3, §4, §5

IL-5 = test: Inflammation: reconstructed human epidermis/PBMC, MSD U-PLEX, IL-5; format: cell-based
Experimental: as §1, §3, §4, §5

IL-8 = test: Inflammation: reconstructed human epidermis/PBMC, MSD U-PLEX, IL-8; format: cell-based
Experimental: as §1, §3, §4, §5

IFN-γ = test: Inflammation: reconstructed human epidermis/PBMC, MSD U-PLEX, IFN-γ; format: cell-based
Experimental: as §1, §3, §4, §5

IL-6 = test: Inflammation: reconstructed human epidermis/PBMC, MSD U-PLEX, IL-6; format: cell-based
Experimental: as §1, §3, §4, §5

IL-4 = test: Inflammation: reconstructed human epidermis/PBMC, MSD U-PLEX, IL-4; format: cell-based; conditions: PBMCs (supernatant)
Experimental: as §1, §2

IL-12p70 = test: Inflammation: reconstructed human epidermis/PBMC, MSD U-PLEX, IL-12p70; format: cell-based
Experimental: as §1, §3, §4
As described above, the Reconstructed human epidermis (RhE) was stimulated with the indicated substances and stimuli (Sample # Description, Tables 11-21) for 16 h. Upon this step the RhE was washed and in incubated in a second line with the indicated substances or culture medium. As controls, the RhE was treated in the first line with PBS and subsequently with culture medium. […]

Keratin 16 = test: Skin barrier: Western blot of Cytokeratin 16 in HaCat 3-dimensional culture; format: cell-based, human
Experimental: FIG. 14: Western Blot Analysis with anti-Cytokeratin 16 was performed as described. The primary antibody (Keratin 16 (KRT16): Cusabio Technology CSB-PA012515LA01Hu) was used in a dilution of 1:500. After the primary incubation step binding of the primary antibody was visualized with an anti-rabbit-IG conjugated to horse raddish peroxidase. Detection of Cytokeratin-16 with an apparent MW of 51 kDa was visualized using the ECL Technology in combination with a BioRad Gel documentation system.
(§6) To determine the effects of the Alpine Heilmoor Extract on the stability of the membrane barrier, human Keratinocytes (HaCat) were analysed in a 3-dimensional cell culture system. Hereby, cells (5×10^4/insert) were seeded on culture inserts of the system and cultivated in 24 well plates for 14 days with medium exchange in 3-day intervals and permanent monitoring of the TEER value. Reaching a constant TEER value cells were stimulated with heat inactivated C. acnes (10^7 cells/well) for 16 h. Subsequently, cells were washed and incubated with described 2nd line substances (i.e. AHE solutions, comprising either 1%, 2% or 5% AHE in PBS, generated as described in Example 8) for 24 hours. […]
(§7) Effects of the indicated stimuli/second line substances were evaluated by determination of the expression levels of membrane markers Cytokeratin 10/Cytokeratin 16/Fillagrin and Ki67. […]

[1] = system: human colorectal cells (CaCo2); test: Membrane barrier enhancement: TEER of CaCo2 3-dimensional culture; format: cell-based; conditions: EGF
Experimental: To determine the effects of the test substances on the stability on the human gut barrier, human colorectal cells (CaCo2) were analysed in a 3-diemsional cell culture system. Cells (5×10^4/insert) were seeded on culture inserts of the system and cultivated in 24 well plates for 14 days with medium exchange in 3-day intervals and permanent monitoring of the TEER value. […] Subsequently, cells were washed and incubated with described 2nd line substances (i.e. AHE solutions, comprising either 1%, 2% or 5% AHE in PBS, generated as describe din Example 8) for 24 hours. After this step cells were washed and cell extracts were prepared by incubation with PBS/1% Triton X100. Cell extracts are ready for SDS-PAGE/Western Blotting.

Keratin 10 = test: Skin barrier: Western blot of Cytokeratin 10 in HaCat 3-dimensional culture; format: cell-based, human; conditions: positive control EGF
Experimental: FIG. 13: Western Blot Analysis with anti-Cytokeratin 10 was performed as described. The primary antibody (Keratin 10 (KRT10): Cusabio Technology CSB-PA445987) was used in a dilution of 1:1000. After the primary incubation step binding of the primary antibody was visualized with an anti-rabbit-IG conjugated to horse raddish peroxidase. Detection of Cytokeratin-10 with an apparent MW of 58 kDa was visualized using the ECL Technology in combination with a BioRad Gel documentation system.
as §6, §7

[2] = system: human Keratinocyte cell line (HaCat); test: Wound healing: scratch of HaCat keratinocyte monolayer, regeneration over 72 h; format: cell-based; conditions: EGF 10 ng/ml; within 72 hours
Experimental: (§8) A human Keratinocyte cell line (HaCat) was cultivated in 6 well plates to reach a dense cell layer. Subsequently the monolayer was injured with a mechanical device leading to a cross formed scratch in the monolayer. Upon scratching cells were washed once with PBS and treated with the test substances outlined above as well as with appropriate controls. The ingrowth of cells was monitored/documented for another 72 hours to the point where the cross formed injury of the monolayer was recovered with cells. At that point cells were washed and harvested. Cell extracts were generated by treatment with PBS/1% Triton X100 (30 min on ice). Subsequently cell extracts were analysed by SDS-PAGE/Western Blotting using antibodies directed towards the […] markers E-Cadherin and Paxillin (FIG. 10 and FIG. 11).
Cells were treated with AHE solutions, comprising either 1% or 5% AHE in PBS (phosphate buffered saline). The dry extract was generated as described in Example 1, and then dissolved in PBS at 37° C. for 72 hours using a weight/volume ratio of 0.1 g/mL, 0.2 g/mL or 0.5 g/mL, respectively.
For comparison, cells were also treated with Fulvic Acid and Charcoal, EGF was used as positive control, Medium without active substance was used as negative control.

Paxillin = test: Western blot of Paxillin in scratched HaCat cells; format: cell-based, human; conditions: comparators: EGF; Fulvic Acid (1% per FIG. 10)
Experimental: (§9) FIG. 10: HaCat cells were cultured as described. 72h after mechanical disruption, cells were lysed (PBS/1% Triton X100, 30 min, 4° C.) and subsequently subjected to SDS-PAGE/Western Blotting. Cell adhesion markers were determined with specific antibodies directed towards cell adhesion markers E-Cadherin and Paxillin. Reactivities were normalized using an antibody directed against the housekeeping protein Actin.
as §9, with “11:” for “10:”, “Paxillin.” for “Paxillin. Reactivities were normalized using an antibody directed against the housekeeping protein Actin.”
as §8, with “Upon scratching cells were washed once with PBS and treated with the test substances outlined above as well as with appropriate controls.” left out, “At that point cells were washed and harvested. Cell extracts were generated by treatment with PBS/1% Triton X100 (30 min on ice).” left out, “11). […]” for “11).”

[3] = RhE C. acnes-stimulated, then substance, 1%
[4] = PBMCs (supernatant), RhE C. acnes-stimulated, then substance, 1%
[5] = PBMCs (supernatant), RhE without C. acnes, 1%
[6] = SN RhEs, RhE C. acnes-stimulated, then substance, 1%
[7] = SN RhEs, RhE without C. acnes, 1%
[8] = RhEs (cell extract), RhE without C. acnes, 1%
[9] = RhE 5% SDS, then culture medium
[10] = PBMCs (supernatant), RhE 5% SDS, then culture medium
[11] = SN RhEs, RhE 5% SDS, then culture medium

CC(C)=CCC[C@](C)(O)C1CC=C(C)CC1 (stereo partly shown) [Bisabolol]
IL-13 concentration (IL-13; [3]): 186.6 pg/mL
IL-13 concentration (IL-13; RhE without C. acnes, 1%): 157.9 pg/mL
IL-1β concentration (IL-1β; [4]): 1525 pg/mL
IL-1β concentration (IL-1β; [5]): 1277 pg/mL
IL-1β concentration (IL-1β; [6]): 8.5 pg/mL
IL-1β concentration (IL-1β; [7]): 5.4 pg/mL
TNFα concentration (TNFα; [4]): 51.6 pg/mL
TNFα concentration (TNFα; [5]): 29.8 pg/mL
TNFα concentration (TNFα; [6]): 8.6 pg/mL
TNFα concentration (TNFα; [7]): 17.1 pg/mL
IL-5 concentration (IL-5; [4]): 24.1 pg/mL
IL-5 concentration (IL-5; [5]): 18.2 pg/mL
IL-5 concentration (IL-5; [6]): 1.1 pg/mL
IL-5 concentration (IL-5; [7]): 0.0 pg/mL
IL-8 concentration (IL-8; [4]): 43765.9 pg/mL
IL-8 concentration (IL-8; [5]): 44123.3 pg/mL
IL-8 concentration (IL-8; RhEs (cell extract), RhE C. acnes-stimulated, then substance, 1%): 58.1 pg/mL
IL-8 concentration (IL-8; [8]): 68.9 pg/mL
IL-8 concentration (IL-8; [6]): 4317.3 pg/mL
IL-8 concentration (IL-8; [7]): 2459.3 pg/mL
INF-y concentration (IFN-γ; [4]): 124.4 pg/mL
INF-y concentration (IFN-γ; [5]): 90.5 pg/mL
INF-y concentration (IFN-γ; [8]): 8.3 pg/mL
INF-y concentration (IFN-γ; [6]): 13.9 pg/mL
IL-6 concentration (IL-6; [4]): 13038.0 pg/mL
IL-6 concentration (IL-6; [5]): 12302.5 pg/mL
IL-6 concentration (IL-6; [6]): 75.1 pg/mL
IL-6 concentration (IL-6; [7]): 30.8 pg/mL
IL-4 concentration (IL-4; [3]): 10.1 pg/mL
IL-4 concentration (IL-4; RhE without C. acnes, 1%): 9.1 pg/mL
IL-12p70 concentration (IL-12p70; [4]): 69.9 pg/mL
IL-12p70 concentration (IL-12p70; [5]): 51.3 pg/mL
IL-12p70 concentration (IL-12p70; [6]): 3.3 pg/mL

CCCCCCCCCCCCOS(=O)(=O)[O-].[Na+] [Rhe PC, SDS]
IL-13 concentration (IL-13; [9]): 220.6 pg/mL
IL-1β concentration (IL-1β; [10]): 1133 pg/mL
TNFα concentration (TNFα; [10]): 24.0 pg/mL
IL-5 concentration (IL-5; [10]): 25.4 pg/mL
IL-5 concentration (IL-5; [11]): 1.0 pg/mL
IL-8 concentration (IL-8; [10]): 43111.6 pg/mL
IL-8 concentration (IL-8; RhEs (cell extract), RhE 5% SDS, then culture medium): 33.5 pg/mL
IL-8 concentration (IL-8; [11]): 77.2 pg/mL
INF-y concentration (IFN-γ; [10]): 114.7 pg/mL
IL-6 concentration (IL-6; [10]): 12909.3 pg/mL
IL-6 concentration (IL-6; [11]): 0.3 pg/mL
IL-4 concentration (IL-4; [9]): 9.0 pg/mL
IL-12p70 concentration (IL-12p70; [10]): 63.0 pg/mL

EGF: positive control (10 ng/ml in Example 8)
Cytokeratin 16 specific band (51 kDa) (Keratin 16; EGF): detected
anti-Cytokeratin 16 reactive protein complex at about 75 kDa (Keratin 16; positive control EGF): visible
TEER value ([1]; D15 (1 d after stimulation with IL1alpha/TNF-alpha)): 4800 Ω/cm^2
TEER value ([1]; D15 (non stimulated controls)): 4000 Ω/cm^2
TEER value ([1]; D17 (after regeneration phase with extracts: non stimulated controls)): 7200 Ω/cm^2
TEER value ([1]; D17 (after regeneration phase with extracts: stimulated skin)): 9600 Ω/cm^2
Cytokeratin 10 band (58 kDa) (Keratin 10): induction
regeneration of scratched keratinocyte monolayer [2]: regenerated well
expression of cell adhesion molecule Paxillin (Paxillin): also observed
